We go through four molecules from patent US6599754B2, “Biphasic reaction vessel and methods of use” (University of Rochester, priority 2000, dated 2003).

The nature of data set [1]: Cellulose membrane permeability and partitioning between methylene chloride and water, analysed by LC/MS. The settings on record: for transport across cellulose membrane from organic to aqueous layer: LC/MS vial covered with cellulose membrane, methylene chloride / water; for solvent preference from relative LC/MS intensities of the two layers: methylene chloride in LC/MS vial, cellulose membrane, immersed in deionized water for twenty-four hours. In kind it is physicochemical. On the procedure: One of the key components to this system is the physical separation between the organic chemistry and the biomolecular receptor. As a simple test, starting material was dissolved in methylene chloride at reaction concentration in an LC/MS vial, the vial covered with a cellulose membrane and immersed in glass-distilled, deionized water for twenty-four hours (FIGS. 10A-B). The experiment was analyzed by LC/MS.
Furthermore, enough of the compound is present to detect by LC/MS without having to concentrate the sample.

The test system of another data set is trypsin. In words: Dynamic library selection experiment against trypsin in the biphasic vessel (LC-MS of extracted ions). The conditions noted are these: 121 compound library, trypsin 43 μM and 257 μM vs trypsin free control, 18 hours incubation; not verified by binding or inhibition constant. On the procedure:
Selection experiments: 1,4-diacetoxycyclopent-2-ene, methoxyphenylacetic acid, hydrocinnamic acid, isovaleric acid, 4-pentynoic acid, cyclopentane carboxylic acid, cis-pinonic acid, tetrahydro-2-furoic acid, 2 -phenylpropionic acid, 2-cyclopentene-1-acetic acid, (−)-methoxyacetic acid and triethyl phosphite were weighed in 4 mL vials in the open atmosphere. Palladium tetrakistriphenylphosphine was added to the vial containing triethylphosphite under a nitrogen atmosphere inside a glove box. The reagents were diluted with freshly distilled methylene chloride under the nitrogen atmosphere. Stock solutions of 1,4 -diacetoxycyclopent-2-ene (2 M), methoxyphenylacetic acid (1.8 M), hydrocinnamic acid (1.8 M), isovaleric acid (1.8 M), 4-pentynoic acid (1.8 M), cyclopentane carboxylic acid (1.8 M), cis-pinonic acid (1.8 M), tetrahydro-2-furoic acid (1.8 M), 2-phenylpropionic acid (1.8 M), 2-cyclopentene-1-acetic acid (1.8 M), (−)-methoxyacetic acid (1.8 M) and palladium tetrakistriphenylphosphine (90 mM) with triethyl phosphite (360 mM) were prepared. An aliquot (611 μL) was removed from each of the ten acid stock solutions, added to a pear shaped flask, and evaporated to dryness. […]
Organic and aqueous samples were analyzed by electrospray LC-MS in positive ionization mode using an acetonitrile: water 1% trifluoroacetic acid gradient elution (30% CH3CN—90%). […]

Consider `CC(=O)OC1C=CC(OC(C)=O)C1` (stereo not drawn) [1,4-diacetoxycyclopent-2-ene], for which, in data set [1], the “transport across cellulose membrane from organic to aqueous layer” value (from here on “transport across cellulose membrane”) is “sufficient ability to undergo membrane transport” and the “solvent preference from relative LC/MS intensities of the two layers” value is given as “organic preference”. With `CC(=O)OC1C=CC(OC(=O)CC2C=CCC2)C1` (stereo not drawn) [1-acetoxy-4-(2-cyclopentene-1-acetoxy)cyclopent-2-ene], the “correlation of amount of compound (ion intensity) with presence of trypsin” value in the data set on trypsin is “strong correlation”. `COC(C(=O)OC1C=CC(OC(C)=O)C1)c1ccccc1` (stereo not drawn) [1-acetoxy-4-(methoxyphenylacetoxy)cyclopent-2-ene]: the “transport across cellulose membrane” value in data set [1] is “present at thirteen minutes in the aqueous layer”.

Turning to `COC(C(=O)O)c1ccccc1` (stereo not drawn) [methoxyphenylacetic acid], in data set [1], the “transport across cellulose membrane” value is on record as “sufficient ability to undergo membrane transport” and the “solvent preference from relative LC/MS intensities of the two layers” value was “aqueous preference”.
